For the test, the target named is T1, SRβ (30-kD β-subunit of the SRP receptor) in SR liposomes (Canis lupus, UniProt A0A8I3Q3L6).
T1 sequence (A0A8I3Q3L6 1-271): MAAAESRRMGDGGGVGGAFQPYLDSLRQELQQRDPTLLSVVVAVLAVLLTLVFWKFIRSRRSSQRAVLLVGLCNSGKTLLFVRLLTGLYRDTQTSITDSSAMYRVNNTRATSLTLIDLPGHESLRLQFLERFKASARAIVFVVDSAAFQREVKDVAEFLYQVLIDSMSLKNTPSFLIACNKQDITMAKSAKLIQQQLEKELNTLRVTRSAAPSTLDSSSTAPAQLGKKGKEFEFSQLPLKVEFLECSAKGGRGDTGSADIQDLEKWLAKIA
T1 sequence (P06625 1-638 partner): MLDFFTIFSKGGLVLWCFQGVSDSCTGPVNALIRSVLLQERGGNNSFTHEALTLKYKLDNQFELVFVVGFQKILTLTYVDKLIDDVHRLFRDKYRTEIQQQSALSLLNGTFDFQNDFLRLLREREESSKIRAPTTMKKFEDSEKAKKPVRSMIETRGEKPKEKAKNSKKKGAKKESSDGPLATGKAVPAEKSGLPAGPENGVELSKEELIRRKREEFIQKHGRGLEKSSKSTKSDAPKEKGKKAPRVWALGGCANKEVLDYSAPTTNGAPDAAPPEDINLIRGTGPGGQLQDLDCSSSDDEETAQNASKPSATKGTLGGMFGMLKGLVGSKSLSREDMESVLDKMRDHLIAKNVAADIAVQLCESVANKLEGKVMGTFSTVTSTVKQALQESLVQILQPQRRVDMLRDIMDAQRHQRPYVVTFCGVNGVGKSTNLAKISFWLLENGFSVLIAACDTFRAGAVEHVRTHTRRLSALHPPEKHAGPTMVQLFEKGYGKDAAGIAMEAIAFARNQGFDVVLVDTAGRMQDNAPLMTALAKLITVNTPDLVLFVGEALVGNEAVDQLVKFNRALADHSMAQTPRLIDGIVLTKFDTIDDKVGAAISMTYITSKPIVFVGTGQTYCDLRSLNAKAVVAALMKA
Description: UV cross-linking of alpha-[…]GTP, saturation, SDS-PAGE and PhosphorImaging. The test is classed as binding.

Usually Kd stands for the concentration at which binding is half-saturated. A higher Kd goes with lower affinity.

SMILES strings stand for the structures.

The compound `Nc1nc2c(ncn2[C@@H]2O[C@H](COP(=O)(O)OP(=O)(O)OP(=O)(O)O)[C@@H](O)[C@H]2O)c(=O)[nH]1` [GTP] yielded a Kd of 20 nM.

For the origin of these results see PMC2156146 (The Journal of Cell Biology, 1999).
